Biological target: Acetylcholinesterase (Homo sapiens, UniProt P22303)
Test: Acetylcholinesterase Inhibition Assay
Settings: pH 8
Protocol: AChI and 5,5'-dithio-bis(2-nitro-benzoic)acid (DTNB) were used as substrate for this enzymatic reaction. […] Then 50 µL of DTNB (0.5 mM) was transferred. Then the reaction was initiated by the addition of 50 µL of AChI. The hydrolysis of AChI was recorded spectrophotometrically by the formation of yellow 5-thio-2-nitrobenzoate anion as the result of the reaction of DTNB with thiocholine at a wavelength of 412 nm.

Sequence of Acetylcholinesterase (P22303 whole entry): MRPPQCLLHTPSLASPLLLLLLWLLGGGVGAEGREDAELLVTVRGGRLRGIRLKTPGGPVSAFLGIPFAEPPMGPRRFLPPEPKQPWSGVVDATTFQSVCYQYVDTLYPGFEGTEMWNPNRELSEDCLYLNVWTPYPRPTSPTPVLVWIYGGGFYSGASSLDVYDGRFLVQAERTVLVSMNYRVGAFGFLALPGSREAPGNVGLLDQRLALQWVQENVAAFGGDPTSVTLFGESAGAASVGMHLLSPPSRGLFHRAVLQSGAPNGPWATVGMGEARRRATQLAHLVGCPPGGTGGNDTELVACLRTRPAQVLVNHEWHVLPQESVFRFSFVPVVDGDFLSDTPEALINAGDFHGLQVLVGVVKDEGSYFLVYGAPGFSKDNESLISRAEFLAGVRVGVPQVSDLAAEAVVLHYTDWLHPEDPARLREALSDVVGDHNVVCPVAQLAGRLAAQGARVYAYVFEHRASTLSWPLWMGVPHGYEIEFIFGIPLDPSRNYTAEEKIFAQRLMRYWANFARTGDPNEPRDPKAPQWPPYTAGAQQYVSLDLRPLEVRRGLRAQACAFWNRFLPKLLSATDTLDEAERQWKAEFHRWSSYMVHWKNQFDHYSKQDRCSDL

How did the IC50 turn out when COc1ccc(OC)c(Br)c1 [2-bromo-1,4-dimethoxybenzene (14)] was run?
Its IC50 is 7.21 nM.

What about the Ki of the same molecule?
Its Ki is 4.25 nM.

Which results are given for COc1ccc(C(=O)c2ccc(OC)cc2OC)cc1 [(2,4-dimethoxyphenyl)(4-methoxyphenyl)methanone (18)]?
IC50: 5.25 nM; Ki: 5.88 nM

O=C(c1ccc(O)cc1Br)c1cccc(O)c1O [(2-Bromo-4-hydroxyphenyl)(2,3-dihydroxyphenyl)methanone (21)] was tested. Which IC50 did it give?
Its IC50 is 4.84 nM.

What about the Ki of the same molecule?
The Ki was 3.75 nM.

With COc1ccc(C(=O)c2cccc(OC)c2OC)c(Br)c1 [(2-Bromo-4-methoxyphenyl)(2,3-dimethoxyphenyl)methanone (11)] as the molecule, how does the IC50 read?
Its IC50 is 4.2 nM.

And the Ki?
Its Ki is 4.34 nM.

Which results are given for O=C(c1ccc(O)c(O)c1)c1ccc(O)cc1Br [(2-bromo-4-hydroxyphenyl)(3,4-dihydroxyphenyl)methanone (20)]?
IC50: 4.71 nM; Ki: 4.06 nM

COc1ccc(C(=O)c2ccc(OC)c(OC)c2)c(Br)c1 [(2-bromo-4-methoxyphenyl)(3,4-dimethoxyphenyl)methanone (10)] was tested. Which IC50 did it give?
Its IC50 is 4.41 nM.

And the Ki?
The Ki was 3.53 nM.

How did the IC50 turn out when O=C(c1ccc(O)cc1)c1cc(O)c(Br)cc1O [(4-Bromo-2,5-dihydroxyphenyl)(4-hydroxyphenyl)methanone (22)] was run?
The IC50 was 4.58 nM.

And the Ki?
Its Ki is 2.78 nM.

For O=C(c1ccccc1)c1cc(O)c(Br)cc1O [(4-Bromo-2,5-dihydroxyphenyl)(phenyl)methanone (23)], which IC50 is on record?
Its IC50 is 4.88 nM.

And the Ki?
Its Ki is 3.24 nM.

COc1ccc(C(=O)c2cc(OC)c(Br)cc2OC)cc1 [(4-Bromo-2,5-dimethoxyphenyl)(4-methoxyphenyl)methanone (15)] was tested. Which IC50 did it give?
Its IC50 is 4.22 nM.

What about the Ki of the same molecule?
The Ki was 3.77 nM.

With COc1cc(C(=O)c2ccccc2)c(OC)cc1Br [(4-Bromo-2,5-dimethoxyphenyl)(phenyl)methanone (16)] as the molecule, how does the IC50 read?
Its IC50 is 4.68 nM.

What about the Ki of the same molecule?
Its Ki is 5.28 nM.

For O=C(c1ccc(O)cc1)c1cc(Br)c(O)cc1O [(5-Bromo-2,4-dihydroxyphenyl)(4-hydroxyphenyl)methanone (24)], which IC50 is on record?
Its IC50 is 4.81 nM.

And the Ki?
The Ki was 5.72 nM.

Which IC50 does the source give for COc1ccc(C(=O)c2cc(Br)c(OC)cc2OC)cc1 [(5-bromo-2,4-dimethoxyphenyl)(4-methoxyphenyl)methanone (19)] here?
Its IC50 is 4.05 nM.

And the Ki?
The Ki was 3.65 nM.

From BindingDB's records for doi:10.1016/j.bioorg.2015.04.006 (Ataturk University, 2015)
